Reference: patent US20040086901A1, “Database for analyzing gene function and method of analyzing gene function by dspa” (priority 2000, published 2004)

Key:
Format in all cases: cell-based, mouse
[1] = test system: NIH3T3 cells overexpressing caspase-1; test: MTT cell viability, caspase-1 overexpressing cells vs parental line; conditions: caspase-1 high-expressing cells / parental cell line, 3 to 4 days
Method: (§1) With regard to the function-known genes, the genes shown in the left column of Table 2 were used. With regard to the drugs, those shown in Table 1 were dissolved in DMSO to an extent of 100-fold of the maximum concentration for the search of the drugs and used. With regard to the cells, incubated NIH3T3 or ras-NIH3T3 cells were used.
(§2) Full-length cDNA of each function-known genes was incorporated into an expression vector (pRc-CMV, etc.) and transfected into NIH3T3 cells by a common method. Transformed cells were isolated using the resistance to G-418 as an index and the expression of the transfected gene in each cell was investigated by Western blotting method to select a highly expressing line.
(§3) Cell viabilities were measured according to the following procedures.
(§4) 1) From the 2nd to the 11th rows of a 96-well plate were filled with DMEM (50 μl). The 12th row was filled with 100 μl of DMEM.
(§5) 2) The 1st row was filled with 98 μl of DMEM.
(§6) 3) Drugs (2 μl each) were added into the 1st row.
(§7) 4) Continuous double-dilution was conducted from the 1st to the 9th rows. Fifty μl were taken out from the 9th row and discarded. The plate was preserved in a CO2 incubator.
(§8) 5) Cells (each high-expressing cells and the parental cell line) were detached from the medium using a trypsin solution, suspended in 10% CS-DMEM and transferred to a test tube and cell numbers (cell/ml) were counted.
(§9) 6) The cells were diluted to a concentration of 1×10^5 cells/ml, and 50 μl of the cell suspension were added to the 1st to the 11th rows of the plate followed by gently stirring.
(§10) 7) The plate was transferred to the CO2 incubator and incubated for 3 to 4 days.
(§11) 8) MTT (5 mg/ml in PBS) (10 μl) was added to the 1st to the 12th rows of the plate and incubated in the CO2 incubator at 37° C. for 4 hours.
(§12) 9) A reaction stop solution (0.04N HCl in isopropanol) (150 μl) was added followed by mixing well and being allowed to stand at room temperature for about 2 hours.
(§13) 10) Coloration of formazan which was a metabolite of the MTT dye was measured using a microplate reader. The measurement wavelength was 574 nm and the reference wavelength was 655 nm. The 10th and the 11th rows of the plate were 100% controls and the 12th row was a 0% control.
(§14) As an index for the sensitivity of highly gene-expressing cells and the parental cell line to various drugs, each of the IC40 values thereof was specified and ratios of the IC40 values were calculated. […] After that, logarithmic values of ratios of IC40 values were calculated from each gene.

[2] = test system: NIH3T3 cells overexpressing Regucalcin; test: MTT cell viability, Regucalcin overexpressing cells vs parental line; conditions: Regucalcin high-expressing cells / parental cell line, 3 to 4 days
Method: as §1, §2, §3, §4, §5, §6, §7, §8, §9, §10, §11, §12, §13
(§15) As an index for the sensitivity of highly gene-expressing cells and the parental cell line to various drugs, each of the IC40 values thereof was specified and ratios of the IC40 values were calculated. FIG. 2 and FIG. 3 are the examples where ratios of IC40 values were calculated from a curve showing the dependency on the concentration of the chemical versus the viability. After that, logarithmic values of ratios of IC40 values were calculated from each gene.

[3] = test system: NIH3T3 cells overexpressing cAMP-PK-CS; test: MTT cell viability, cAMP-PK-CS overexpressing cells vs parental line; conditions: cAMP-PK-CS high-expressing cells / parental cell line, 3 to 4 days
Method: as §1, §2, §3, §4, §5, §6, §7, §8, §9, §10, §11, §12, §13, §14

[4] = test system: NIH3T3 cells overexpressing caspase-2; test: MTT cell viability, caspase-2 overexpressing cells vs parental line; conditions: caspase-2 high-expressing cells / parental cell line, 3 to 4 days
Method: as §1, §2, §3, §4, §5, §6, §7, §8, §9, §10, §11, §12, §13, §15

[5] = test system: NIH3T3 cells overexpressing RhoA; test: MTT cell viability, RhoA overexpressing cells vs parental line; conditions: RhoA high-expressing cells / parental cell line, 3 to 4 days
Method: as §1, §2, §3, §4, §5, §6, §7, §8, §9, §10, §11, §12, §13, §15

[6] = test system: NIH3T3 cells overexpressing erbB2; test: MTT cell viability, erbB2 overexpressing cells vs parental line; conditions: erbB2 high-expressing cells / parental cell line, 3 to 4 days
Method: as §1, §2, §3, §4, §5, §6, §7, §8, §9, §10, §11, §12, §13, §15

[7] = test system: NIH3T3 cells overexpressing cystatin alpha; test: MTT cell viability, cystatin alpha overexpressing cells vs parental line; conditions: cystatin alpha high-expressing cells / parental cell line, 3 to 4 days
Method: as §1, §2, §3, §4, §5, §6, §7, §8, §9, §10, §11, §12, §13, §15

[8] = test system: NIH3T3 cells overexpressing TK; test: MTT cell viability, TK overexpressing cells vs parental line; conditions: TK high-expressing cells / parental cell line, 3 to 4 days
Method: as §1, §2, §3, §4, §5, §6, §7, §8, §9, §10, §11, §12, §13, §15

[9] = test system: NIH3T3 cells overexpressing Bax; test: MTT cell viability, Bax overexpressing cells vs parental line; conditions: 3 to 4 days
Method: as §1, §2, §3, §4, §5, §6, §7, §8, §9, §10, §11, §12, §13, §14

[10] = test system: NIH3T3 cells overexpressing HNF4; test: MTT cell viability, HNF4 overexpressing cells vs parental line; conditions: HNF4 high-expressing cells / parental cell line, 3 to 4 days
Method: as §1, §2, §3, §4, §5, §6, §7, §8, §9, §10, §11, §12, §13, §14

[11] = test system: NIH3T3 cells overexpressing T.Tn; test: MTT cell viability, T.Tn overexpressing cells vs parental line; conditions: T.Tn high-expressing cells / parental cell line, 3 to 4 days
Method: as §1, §2, §3, §4, §5, §6, §7, §8, §9, §10, §11, §12, §13, §14

[12] = test system: NIH3T3 cells overexpressing p53(wt); test: MTT cell viability, p53(wt) overexpressing cells vs parental line; conditions: p53(wt) high-expressing cells / parental cell line, 3 to 4 days
Method: as §1, §2, §3, §4, §5, §6, §7, §8, §9, §10, §11, §12, §13, §14

[13] = test system: NIH3T3 cells overexpressing coup; test: MTT cell viability, coup overexpressing cells vs parental line; conditions: coup high-expressing cells / parental cell line, 3 to 4 days
Method: as §1, §2, §3, §4, §5, §6, §7, §8, §9, §10, §11, §12, §13, §15

[14] = test system: NIH3T3 cells overexpressing CaMKIIa; test: MTT cell viability, CaMKIIa overexpressing cells vs parental line; conditions: CaMKIIa high-expressing cells / parental cell line, 3 to 4 days
Method: as §1, §2, §3, §4, §5, §6, §7, §8, §9, §10, §11, §12, §13, §14

[15] = test system: NIH3T3 cells overexpressing p33/ING1; test: MTT cell viability, p33/ING1 overexpressing cells vs parental line; conditions: p33/ING1 high-expressing cells / parental cell line, 3 to 4 days
Method: as §1, §2, §3, §4, §5, §6, §7, §8, §9, §10, §11, §12, §13, §15

[16] = test system: NIH3T3 cells overexpressing Cip-1; test: MTT cell viability, Cip-1 overexpressing cells vs parental line; conditions: Cip-1 high-expressing cells / parental cell line, 3 to 4 days
Method: as §1, §2, §3, §4, §5, §6, §7, §8, §9, §10, §11, §12, §13, §14

[17] = test system: NIH3T3 cells overexpressing PDGF-R; test: MTT cell viability, PDGF-R overexpressing cells vs parental line; conditions: PDGF-R high-expressing cells / parental cell line, 3 to 4 days
Method: as §1, §2, §3, §4, §5, §6, §7, §8, §9, §10, §11, §12, §13, §15

[18] = test system: NIH3T3 cells overexpressing v-src; test: MTT cell viability, v-src overexpressing cells vs parental line; conditions: v-src high-expressing cells / parental cell line, 3 to 4 days
Method: as §1, §2, §3, §4, §5, §6, §7, §8, §9, §10, §11, §12, §13, §15

[19] = test system: NIH3T3 cells overexpressing PKCepsilon-KN; test: MTT cell viability, PKCepsilon-KN overexpressing cells vs parental line; conditions: 3 to 4 days
Method: as §1, §2, §3, §4, §5, §6, §7, §8, §9, §10, §11, §12, §13, §14

[20] = Bax (first of two Bax lines) high-expressing cells / parental cell line
[21] = Bax (second of two Bax lines) high-expressing cells / parental cell line
[22] = PKCepsilon-KN (first of two lines) high-expressing cells / parental cell line
[23] = PKCepsilon-KN (second of two lines) high-expressing cells / parental cell line

| Compound | logarithmic value of ratio of IC40 values [1] | logarithmic value of ratio of IC40 values [2] | logarithmic value of ratio of IC40 values [3] | logarithmic value of ratio of IC40 values [4] | logarithmic value of ratio of IC40 values [5] | logarithmic value of ratio of IC40 values [6] | logarithmic value of ratio of IC40 values [7] | logarithmic value of ratio of IC40 values [8] | logarithmic value of ratio of IC40 values [9, 20] | logarithmic value of ratio of IC40 values [9, 21] | logarithmic value of ratio of IC40 values [10] | logarithmic value of ratio of IC40 values [11] | logarithmic value of ratio of IC40 values [13] | logarithmic value of ratio of IC40 values [14] | logarithmic value of ratio of IC40 values [15] | logarithmic value of ratio of IC40 values [16] | logarithmic value of ratio of IC40 values [17] | logarithmic value of ratio of IC40 values [18] | logarithmic value of ratio of IC40 values [19, 22] | logarithmic value of ratio of IC40 values [19, 23] | also measured |
| --- | --- | --- | --- | --- | --- | --- | --- | --- | --- | --- | --- | --- | --- | --- | --- | --- | --- | --- | --- | --- | --- |
| ICE inhibitor-III [ICEin-3] | 0.11 | 0.00 | 0.00 | 0.04 | 0.19 | 0.18 | 0.32 | −0.15 | −0.12 | 0.00 | 0.00 | 0.30 | −0.11 | 0.00 | −0.15 | 0.08 | 0.20 | −0.14 | −0.21 | 0.33 | logarithmic value of ratio of IC40 values [12]: 0.23 |
| Nc1nc2nc[nH]c2c(=S)[nH]1 [6-TG, 6-thioguanine] |  | 0.20 | 0.14 | 0.18 | 0.69 | −0.12 | 0.60 | −0.17 | 0.36 | −0.05 | 0.00 | 0.00 | 0.45 | 0.00 | 0.46 | 0.47 | 0.22 | 0.00 | 0.00 | 0.00 |  |
| CC(C)(C)C(=O)Oc1ccc(S(=O)(=O)Nc2ccccc2C(=O)NCC(=O)O)cc1 [compound 5046] | 0.40 | −0.38 |  | 0.51 | 0.11 | 0.80 |  | −0.24 | −0.07 |  |  |  | −0.04 |  | −0.25 | −0.14 | 0.36 | 0.51 | −0.21 |  |  |
| C[C@@H]1O[C@@H](O[C@H]2C[C@@H](O)[C@]3(CO)[C@H]4[C@H](O)C[C@]5(C)[C@@H](C6=CC(=O)OC6)CC[C@]5(O)[C@@H]4CC[C@]3(O)C2)[C@H](O)[C@H](O)[C@H]1O [Ouabain, ouabain] | 1.26 | −0.12 | 0.00 | −0.05 | 0.15 | 0.18 | 1.28 | 0.00 | 0.40 | 0.00 | −0.08 | 0.28 | 0.49 | 0.23 | 0.10 | 0.16 | 0.34 | 0.00 | −0.15 | −0.12 |  |
